Patent publication US20250101028A1, “HETEROCYCLIC COMPOUNDS, COMPOSITIONS THEREOF, AND METHODS OF TREATMENT THEREWITH” (BeiGene, Ltd., priority 2022, published 2025)

Columns and labels:
[1] = target: T1, GST-tagged GDP-loaded KRAS G12V (amino acids 1-169) (Homo sapiens, UniProt P01116, G12V); test: KRAS G12V probe displacement assay (TR-FRET); type: binding; conditions: displacement of biotinylated probe 2 from GDP-loaded KRAS G12V
T1 construct: GST-tagged GDP-loaded KRAS G12V (amino acids 1-169); made in house; host or cells: E. coli
In short: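 Probe displacement read as TR-FRET (665/620 nm) with anti-GST-Tb and streptavidin-XL665, IC50 from four-parameter logistic fit. Compound preincubated 1 h, 24 °C, with E. coli-expressed KRAS 1-169: WT at 3 nM with 60 nM probe 1, G12V at 2 nM with 2.5 nM probe 2, pH 7.5.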

[2] = target: T2, GST-tagged GDP-loaded KRAS G12D (amin acids 1-188) (Homo sapiens, UniProt P01116, G12D); test: KRAS G12D probe displacement assay (TR-FRET); type: binding; conditions: displacement of biotinylated probe 2 from GDP-loaded KRAS G12D
T2 construct: GST-tagged GDP-loaded KRAS G12D (amin acids 1-188); made in house; host or cells: E. coli
Procedure: KRAS WT and KRAS G12D Probe Displacement Assay
This assay was used to identify compounds which bind to GDP-loaded KRAS protein and are able to displace a biotinylated probe occupying the KRAS binding site. GST-tagged GDP-loaded WT KRAS (amino acids 1-188) and GST-tagged GDP-loaded KRAS G12D (amin acids 1-188) were expressed in E. coli and purified in house. All protein and reaction solutions were prepared in assay buffer containing 50 mM HEPES pH7.5, 50 mM NaCl, 1 mM MgCl2, 1 mM TCEP, 0.01% BSA, and 0.008% Brij-35. Purified WT KRAS (3 nM final concentration) or KRAS G12D protein (0.5 nM final concentration) was incubated with a 3-fold serially diluted compound in the assay plate (384 well microplate, black, Corning). Plates are incubated at 24° C. for 1 hr. Following the incubation, biotinylated probe 1 (60 nM final assay concentration) for WT KRAS and biotinylated probe 2 (4 nM final assay concentration) for KRAS G12D was added to the assay plate, respectively. After 1 hr incubation at 24° C., Mab Anti-GST-Tb cryptate (Cisbio) and Streptavidin-XL665 (Cisbio) were added and further incubated at 24° C. for another 1 hr. The TR-FRET signals (ex337 nm, em665 nm/620 nm) were read on BMG PHERAstar FSX instrument. The inhibition percentage of KRAS protein binding with biotinylated probe in presence of increasing concentrations of compounds was calculated based on the ratio of fluorescence at 665 nm to that at 620 nm. The IC50 value of each compound was calculated from fitting the data to the four-parameter logistic model by Dotmatics.

[3] = tested on: pERK1/2(THR202/TYR204) level, SW620 cell line; test: KRAS G12V pERK assay (HTRF); type: cell-based; conditions: Homo sapiens, SW-620; SW620 cells, 2 hrs compound treatment
Procedure: (§1) SW620 cell line was used in this study. Cells were maintained in RPMI 1640 supplemented with 10% fetal bovine serum (Thermo Fisher), 50 units/mL penicillin and streptomycin (Thermo Fisher) and kept at 37° C. in a humidified atmosphere of 5% CO2 in air. Cells were reinstated from frozen stocks that were laid down within 30 passages from the original cells purchased. 40000 cells per well were seeded into a 96-well plate and incubated overnight. Cells were treated with a 10-point dilution series. The final compound concentration is from 0 to 10 M. After 2 hrs compound treatment, cells were lysed, and the pERK1/2(THR202/TYR204) level in the cell lysates was detected by HTRF kit (Cisbio). In brief, a total of 16 μL of cell lysate from each well of a 96-well plate was transferred to a 384-well white assay plate. Lysate from each well was incubated with 2 μL of Eu3+− cryptate (donor) labeled anti-phospho-ERK1/2 and 2 μL of D2 (acceptor) labeled anti-phospho-ERK1/2 antibodies (Cisbio) overnight in dark at room temperature. When donor and acceptor are in close proximity, excitation of the donor with laser triggers a Fluorescence Resonance Energy Transfer (FRET) towards the acceptor, which in turn fluoresces at 655 nm wavelength. FRET signals were measured using a PHERAstar FSX reader (BMG Labtech). IC50 determination was performed by fitting the curve of percent inhibition versus the log of the inhibitor concentration using Dotmatics.

[4] = tested on: pERK1/2(THR202/TYR204) level, AsPC-1 cell line; test: KRAS G12D pERK assay (HTRF); type: cell-based; conditions: Homo sapiens, ASPC1; AsPC-1 cells, 2 h compound treatment
Procedure: as §1, with “AsPC-1” for “SW620”, “RPMI-1640” for “RPMI 1640”, “30000” for “40000”, “μM.” for “M.”, “h” for “hrs”

T2 sequence (P01116 1-188 isoform P01116-2 G12D): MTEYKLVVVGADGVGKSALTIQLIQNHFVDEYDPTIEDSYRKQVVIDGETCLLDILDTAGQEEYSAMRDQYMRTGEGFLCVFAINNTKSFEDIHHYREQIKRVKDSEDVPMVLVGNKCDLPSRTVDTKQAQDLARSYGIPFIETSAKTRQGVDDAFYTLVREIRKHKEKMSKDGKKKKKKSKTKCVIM
T1 sequence (P01116 1-169 isoform P01116-2 G12V): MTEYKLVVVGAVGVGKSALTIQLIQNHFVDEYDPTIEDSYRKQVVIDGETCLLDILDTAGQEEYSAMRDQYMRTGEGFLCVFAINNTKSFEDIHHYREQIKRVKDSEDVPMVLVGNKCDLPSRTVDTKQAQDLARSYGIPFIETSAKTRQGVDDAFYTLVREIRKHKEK

Nc1nc2c(-c3c(C(F)(F)F)cc4c(NC5CC5)nc(OC[C@@]56CCCN5C[C@H](F)C6)nc4c3F)ccc(F)c2s1 [Example 1, 4-(4-(cyclopropylamino)-8-fluoro-2-(((2R,7aS)-2-fluorotetrahydro-1H-pyrrolizin-7a(5H)-yl)methoxy)-6-(trifluoromethyl)quinazolin-7-yl)-7-fluorobenzo[d]thiazol-2-amine]
IC50 [1]: 4.2 nM | IC50 [2]: 22 nM | IC50 [3]: 129 nM | IC50 [4]: 2460 nM

C[C@@H]1C[C@@H](C#N)CCN1c1nc(OC[C@@]23CCCN2C[C@H](F)C3)nc2c(F)c(-c3ccc(F)c4sc(N)c(C#N)c34)c(C(F)(F)F)cc12 [Example 100, (2R,4S)-1-(7-(2-amino-3-cyano-7-fluorobenzo[b]thiophen-4-yl)-8-fluoro-2-(((2R,7aS)-2-fluorotetrahydro-1H-pyrrolizin-7a(5H)-yl)methoxy)-6-(trifluoromethyl)quinazolin-4-yl)-2-methylpiperidine-4-carbonitrile]
IC50 [1]: 0.74 nM | IC50 [2]: 0.34 nM | IC50 [3]: 18 nM | IC50 [4]: 56 nM

Nc1nc2c(-c3c(C(F)(F)F)cc4c(N5CCC6(CC5)CNC(=O)O6)nc(OC[C@@]56CCCN5C[C@H](F)C6)nc4c3F)ccc(F)c2s1 [Example 86, 8-(7-(2-amino-7-fluorobenzo[d]thiazol-4-yl)-8-fluoro-2-(((2R,7aS)-2-fluorotetrahydro-1H-pyrrolizin-7a(5H)-yl)methoxy)-6-(trifluoromethyl)quinazolin-4-yl)-1-oxa-3,8-diazaspiro[4.5]decan-2-one]
IC50 [1]: 0.8 nM | IC50 [2]: 23 nM | IC50 [3]: 715 nM | IC50 [4]: 5440 nM

N#CC1CN(c2nc(OC[C@@]34CCCN3C[C@H](F)C4)nc3c(F)c(-c4ccc(F)c5sc(N)nc45)c(C(F)(F)F)cc23)C1 [Example 39, 1-(7-(2-amino-7-fluorobenzo[d]thiazol-4-yl)-8-fluoro-2-(((2R,7aS)-2-fluorotetrahydro-1H-pyrrolizin-7a(5H)-yl)methoxy)-6-(trifluoromethyl)quinazolin-4-yl)azetidine-3-carbonitrile]
IC50 [1]: 5.5 nM | IC50 [3]: 410 nM

Nc1nc2c(-c3c(C(F)(F)F)cc4c(N[C@H]5[C@@H]6COC[C@@H]65)nc(OC[C@@]56CCCN5C[C@H](F)C6)nc4c3F)ccc(F)c2s1 [Example 7, 4-(4-(((1R,5S,6r)-3-oxabicyclo [3.1.0]hexan-6-yl)amino)-8-fluoro-2-(((2R,7aS)-2-fluorotetrahydro-1H-pyrrolizin-7a(5H)-yl)methoxy)-6-(trifluoromethyl)quinazolin-7-yl)-7-fluorobenzo[d]thiazol-2-amine]
IC50 [1]: 4.2 nM | IC50 [3]: 220 nM

C[C@@]1(O)CCCN(c2nc(OC[C@@]34CCCN3C[C@H](F)C4)nc3c(F)c(-c4cc(N)cc(Cl)c4C(F)(F)F)ncc23)C1 [Example 128, (R)-1-(7-(5-amino-3-chloro-2-(trifluoromethyl)phenyl)-8-fluoro-2-(((2R,7aS)-2-fluorotetrahydro-1H-pyrrolizin-7a(5H)-yl)methoxy)pyrido[4,3-d]pyrimidin-4-yl)-3-methylpiperidin-3-ol]
IC50 [1]: 2.6 nM | IC50 [2]: 1.2 nM | IC50 [3]: 84 nM | IC50 [4]: 76 nM

Nc1nc2c(-c3c(C(F)(F)F)cc4c(N5CCC5)nc(OC[C@@]56CCCN5C[C@H](F)C6)nc4c3F)ccc(F)c2s1 [Example 33, 4-(4-(azetidin-1-yl)-8-fluoro-2-(((2R,7aS)-2-fluorotetrahydro-1H-pyrrolizin-7a(5H)-yl)methoxy)-6-(trifluoromethyl)quinazolin-7-yl)-7-fluorobenzo[d]thiazol-2-amine]
IC50 [1]: 2.6 nM | IC50 [3]: 333 nM

N#CC1CCN(c2nc(OC[C@@]34CCCN3C[C@H](F)C4)nc3c(F)c(-c4ccc(F)c5sc(N)nc45)c(C(F)(F)F)cc23)CC1 [Example 68, 1-(7-(2-amino-7-fluorobenzo[d]thiazol-4-yl)-8-fluoro-2-(((2R,7aS)-2-fluorotetrahydro-1H-pyrrolizin-7a(5H)-yl)methoxy)-6-(trifluoromethyl)quinazolin-4-yl)piperidine-4-carbonitrile]
IC50 [1]: 0.77 nM | IC50 [2]: 6.6 nM | IC50 [3]: 76 nM | IC50 [4]: 686 nM

CN1CC2(CCN(c3nc(OC[C@@]45CCCN4C[C@H](F)C5)nc4c(F)c(-c5ccc(F)c6sc(N)nc56)c(C(F)(F)F)cc34)CC2)OC1=O [Example 87, 8-(7-(2-amino-7-fluorobenzo[d]thiazol-4-yl)-8-fluoro-2-(((2R,7aS)-2-fluorotetrahydro-1H-pyrrolizin-7a(5H)-yl)methoxy)-6-(trifluoromethyl)quinazolin-4-yl)-3-methyl-1-oxa-3,8-diazaspiro[4.5]decan-2-one]
IC50 [1]: 0.77 nM | IC50 [3]: 108 nM

N#CC1CCCN(c2nc(OC[C@@]34CCCN3C[C@H](F)C4)nc3c(F)c(-c4ccc(F)c5sc(N)nc45)c(C(F)(F)F)cc23)CC1 (stereo partly drawn) [Example 82, 1-(7-(2-amino-7-fluorobenzo[d]thiazol-4-yl)-8-fluoro-2-(((2R,7aS)-2-fluorotetrahydro-1H-pyrrolizin-7a(5H)-yl)methoxy)-6-(trifluoromethyl)quinazolin-4-yl)azepane-4-carbonitrile]
IC50 [1]: 0.74 nM | IC50 [3]: 199 nM
